# Laboratory results: patent publication US20110071197A1, “BIS-ARYL COMPOUNDS FOR USE AS MEDICAMENTS” (priority 2008, published 2011)
# Columns and labels:
# [1] = biological target: T1, Recombinant human LTC4 synthase (Homo sapiens, UniProt Q16873); assay: LTC4 synthase in vitro assay (HPLC method); format: biochemical; details: inhibition of LTC4 synthase
# T1 construct: made in house; host or cells: Pichia pastoris
# T1 sequence (Q16873 1-150): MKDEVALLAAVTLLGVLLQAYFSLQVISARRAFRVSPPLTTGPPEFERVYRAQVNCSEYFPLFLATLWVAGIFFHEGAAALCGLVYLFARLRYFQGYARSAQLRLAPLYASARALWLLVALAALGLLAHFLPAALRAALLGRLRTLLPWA
# Description: In the assay, LTC4 synthase catalyses the reaction where the substrate LTA4 methyl ester is converted to the corresponding LTC4 methyl ester. Recombinant human LTC4 synthase is expressed in Piccia pastoralis and the purified enzyme is dissolved in 25 mM Tris-buffer pH 7.8 and stored at −80° C. The assay is performed in phosphate buffered saline (PBS) pH 7.4, supplemented with 5 mM glutathione (GSH). The reaction is terminated by addition of acetonitrile/MeOH/acetic acid (50/50/1). The assay is performed at rt in 96-well plates. Analysis of the formed LTC4 methyl ester is performed with reversed phase HPLC (Waters 2795 utilizing an Onyx Monolithic C18 column). The mobile phase consists of acetonitrile/MeOH/H2O (32.5/30/37.5) with 1% acetic acid pH adjusted with NH3 to pH 5.6, and absorbance measured at 280 nm with a Waters 2487 UV-detector.
# The following is added chronologically to each well: • 1. 50 μl assay buffer, PBS with 5 mM GSH. • 2. 0.5 μl inhibitor in DMSO (final conc. 1 nM-10 μM). • 3. 2 μl LTC4 synthase in PBS. The total protein concentration in this solution is 0.025 mg/ml. Incubation of the plate at room temperature for 10 minutes. • 4. 1-1.5 μl LTA4 methyl ester (final conc. 10 μM). Incubation of the plate at rt for 1 min. • 5. 50 μl stop solution.
# 80 μl of the incubation mixture is analysed with HPLC.
# [2] = biological target: T1, Recombinant human LTC4 synthase; assay: LTC4 synthase in vitro assay (HTRF detection of LTC4); format: biochemical; details: HTRF method
# Method in brief: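 Pichia-expressed recombinant human LTC4 synthase at 0.5 μg/ml total protein in PBS pH 7.4 with 5 mM GSH, preincubated 10 min at RT with inhibitor (10 μM final). LTA4 (2.5 μM final) was then added for 5 min at RT. LTC4 formed was read by HTRF.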
# [3] = total concentration of title compound in the assay 10 μM
IC50 [1] [nM],"inhibition at 10 µM [2, 3] [%]",inhibition at 3 µM ([2]; compound concentration 3 μM) [%],SMILES,"% inh. [2, 3] [%]"
802,97,,CC(C)(C)c1ccc(C(=O)Nc2cccc(Oc3ccc(NS(=O)(=O)c4ccc(C(C)(C)C)cc4)c(C(=O)O)c3)c2)cc1 [29:1],
629,98,,CCCCOc1ccc(S(=O)(=O)Nc2ccc(Oc3cccc(Oc4ccc(F)c(F)c4)c3)cc2C(=O)O)cc1 [28:1],
5110,72,,"CC(C)Oc1ccc(C(=O)Nc2ccc(Oc3ccc(NC(=O)c4ccccc4)cc3)cc2/C=C/C(=O)O)cc1 [Example 22:3, (E)-3-[5-(4-Benzoylaminophenoxy)-2-(4-isopropoxy-benzoylamino)-phenyl]acrylic acid]",
845,97,,"O=C(O)c1cc(Oc2ccc(Nc3ccc(F)cc3)c(C(=O)O)c2)ccc1Nc1ccc(F)cc1 [1:2, 3,3′-oxybis[6-(4-fluorophenyl-amino)benzoic acid]]",
449,,80,"O=C(Nc1ccc(Sc2ccc(NC(=O)Nc3ccc(C(F)(F)F)cc3)c(C(=O)O)c2)cc1)Nc1ccc(C(F)(F)F)cc1 [14:6, 2-[3-(4-trifluoromethyl-phenyl)ureido]-5-{4-[3-(4-trifluoromethylphenyl)-ureido]phenylsulfanyl}-benzoic acid]",
,,,"O=C(Nc1ccc(Oc2ccc(NC(=O)c3cccc(Cl)c3)c(C(=O)O)c2)cc1C(=O)O)c1ccc(SC(F)(F)F)cc1 [2:1, 5-[3-carboxy-4-(4-(trifluoromethylthio)-benzamido)-phenyloxy]-2-(3-chlorobenz-amido)benzoic acid]",98

SMILES,IC50 [1] [nM],"inhibition at 10 µM [2, 3] [%]",inhibition at 3 µM ([2]; compound concentration 3 μM) [%],"% inh. [2, 3] [%]"
"CCCCOc1ccc(S(=O)(=O)Nc2ccc(Oc3cccc(S(=O)(=O)Nc4ccc(Cl)cc4)c3)cc2C(=O)O)cc1 [19:1, 2-(4-Butoxy-benzenesulfonylamino)-5-[3-(4-chloro-phenylsufamoyl)-phenoxy]-benzoic acid]",1160,100,,
